We go through 15 compounds from publication PMC10706804, “Synthesis and Characterization of a New Class of Chromene-Azo Sulfonamide Hybrids as Promising Anticancer Candidates with the Exploration of Their EGFR, hCAII, and MMP-2 Inhibitors Based on Molecular Docking Assays” (International Journal of Molecular Sciences, 2023).

One experiment deals with T1, MMP-2 (Homo sapiens, UniProt P08253).
T1 sequence (P08253 110-660): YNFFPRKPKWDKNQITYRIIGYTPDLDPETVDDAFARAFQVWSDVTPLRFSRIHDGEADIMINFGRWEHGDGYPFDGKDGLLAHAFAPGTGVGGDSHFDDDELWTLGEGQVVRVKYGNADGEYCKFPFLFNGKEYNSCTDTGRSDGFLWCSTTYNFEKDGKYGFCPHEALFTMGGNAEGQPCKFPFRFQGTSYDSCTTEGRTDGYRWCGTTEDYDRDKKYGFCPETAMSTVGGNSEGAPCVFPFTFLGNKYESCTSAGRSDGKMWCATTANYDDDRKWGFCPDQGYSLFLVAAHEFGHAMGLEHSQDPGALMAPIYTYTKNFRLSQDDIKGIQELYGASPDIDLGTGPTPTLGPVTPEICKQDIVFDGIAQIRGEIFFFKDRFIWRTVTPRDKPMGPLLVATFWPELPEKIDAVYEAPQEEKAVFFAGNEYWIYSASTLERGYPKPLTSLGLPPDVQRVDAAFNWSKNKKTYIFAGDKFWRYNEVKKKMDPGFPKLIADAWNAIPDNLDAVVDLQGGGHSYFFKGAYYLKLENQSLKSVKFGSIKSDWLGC
As to the kind of experiment: MMP-2 Inhibitor Screening Assay Kit (colorimetric). The conditions noted are these: for IC50: IC50 on MMP-2, MMP-2 inhibitor screening kit; for anti-MMP-2 inhibition at the first concentration: first concentration of two-fold serial dilutions.

For a further experiment, the target named is T2, cytosolic hCA II (Bos taurus, UniProt P00921).
T2 construct: purchased Sigma–Aldrich C2624
T2 sequence (P00921 whole entry): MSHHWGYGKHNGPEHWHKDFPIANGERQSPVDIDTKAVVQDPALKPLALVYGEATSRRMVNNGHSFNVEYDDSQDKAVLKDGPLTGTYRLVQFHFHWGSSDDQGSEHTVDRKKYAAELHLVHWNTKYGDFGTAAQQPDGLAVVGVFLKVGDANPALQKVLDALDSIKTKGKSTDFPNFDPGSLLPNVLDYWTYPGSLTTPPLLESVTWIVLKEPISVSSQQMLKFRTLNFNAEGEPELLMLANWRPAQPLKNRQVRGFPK
Briefly: CA-II inhibition assay (esterase activity, 4-NPA). In kind it is biochemical, bovine. The settings on record: reduction in esterase activity, 4-NPA substrate; read-out: IC50 against hCA II. As for the experimental part: The CA-II inhibition assay for the analyzed molecules was performed based on the measurement of the reduction in esterase activity on the substrate p-nitrophenyl acetate (4-NPA). Briefly, the total mixture volume was 200 µL in a well containing 140 µL (20 mM HEPES) Tris buffer (pH 7.4), 20 µL of the enzyme (from bovine, Sigma–Aldrich, C2624, St. Louis, MO, USA), and 20 µL (0.5 mg/mL in DMSO) of the investigated derivatives, which were mixed and incubated at 25 °C for 15 min. […] The results, attained after the reactions were completed in triplicate, were quantified by the equation given below. The percent inhibition for each sample was calculated as Inhibition (%) = [(C − T)/C] × 100, where C (i.e., control) = total enzyme activity without inhibitor and T (i.e., test sample) = activity in the presence of test compound.

In experiment [1] the test system is human breast adenocarcinoma (MCF-7). Briefly: MTT cytotoxicity, MCF-7. In kind it is cell-based. An excerpt:
(§1) Three human tumorous cell lines—human colon carcinoma (HCT-116), human liver carcinoma (HepG-2), and human breast adenocarcinoma (MCF-7)—were subjected to cytotoxic behavior, employing the MTT analysis. Moreover, a normotoxicity assessment was employed against normal Vero cell line (African Green Monkey Kidney cells) for selected active compounds to determine their therapeutic safety. […] The inhibitory performance of derivatives 1a–e, 2a–e, 7a–g, 8, and 11a–e, and its derived relation to the cell proliferation of these three cancers, are described in Table 1 and Figure 2. […] Characteristically, the inhibitory activity was enhanced via incorporating the azo moieties in compounds 2a–b.
(§2) The cytotoxic activity was appraised using the 3-(4,5-dimethylthiazol-2-yl)-2,5-diphenyl-tetrazolium bromide (MTT) colorimetric assay as reported previously.

The subject of experiment [2] is human colon carcinoma (HCT-116). Briefly: MTT cytotoxicity, HCT-116. In kind it is cell-based. The conditions noted are these: HCT-116 cells.
Source text: as §1, §2

Experiment [3] concerns human liver carcinoma (HepG-2). As to the kind of experiment: MTT cytotoxicity, HepG-2. In kind it is cell-based.
Source text: as §1, §2

The next experiment has as its target T3, EGFR (Homo sapiens, UniProt P00533).
T3 construct: purchased BPS Bioscience 40321
Briefly: EGFR kinase assay kit inhibition. In kind it is biochemical. As for the experimental part: After ADP is converted into ATP, ATP can be used as the substrate of the luciferase-catalyzed reaction to generate an optical signal, which is positively correlated with kinase activity. […] The plate was incubated at 30 °C for 40 min.

In experiment [4] the test system is normal Vero cell line (Vero CCL-81). As to the kind of experiment: Normotoxicity assessment, normal Vero cell line. The experiment is classed as cell-based, African Green Monkey. The conditions noted are these: Chlorocebus sabaeus; normal Vero CCL-81 cells, cytotoxicity.
Source text: as §1, §2

Where [5] appears, read: Homo sapiens, MCF7, MCF-7 cells.
Setting [6] is: Homo sapiens, HepG2, HepG-2 cells.

Values joined by “and” are separate entries in the source; they are usually repeats but may differ in a detail not shown here. Identical values can stand only once.

T3 sequence (P00533 25-1210): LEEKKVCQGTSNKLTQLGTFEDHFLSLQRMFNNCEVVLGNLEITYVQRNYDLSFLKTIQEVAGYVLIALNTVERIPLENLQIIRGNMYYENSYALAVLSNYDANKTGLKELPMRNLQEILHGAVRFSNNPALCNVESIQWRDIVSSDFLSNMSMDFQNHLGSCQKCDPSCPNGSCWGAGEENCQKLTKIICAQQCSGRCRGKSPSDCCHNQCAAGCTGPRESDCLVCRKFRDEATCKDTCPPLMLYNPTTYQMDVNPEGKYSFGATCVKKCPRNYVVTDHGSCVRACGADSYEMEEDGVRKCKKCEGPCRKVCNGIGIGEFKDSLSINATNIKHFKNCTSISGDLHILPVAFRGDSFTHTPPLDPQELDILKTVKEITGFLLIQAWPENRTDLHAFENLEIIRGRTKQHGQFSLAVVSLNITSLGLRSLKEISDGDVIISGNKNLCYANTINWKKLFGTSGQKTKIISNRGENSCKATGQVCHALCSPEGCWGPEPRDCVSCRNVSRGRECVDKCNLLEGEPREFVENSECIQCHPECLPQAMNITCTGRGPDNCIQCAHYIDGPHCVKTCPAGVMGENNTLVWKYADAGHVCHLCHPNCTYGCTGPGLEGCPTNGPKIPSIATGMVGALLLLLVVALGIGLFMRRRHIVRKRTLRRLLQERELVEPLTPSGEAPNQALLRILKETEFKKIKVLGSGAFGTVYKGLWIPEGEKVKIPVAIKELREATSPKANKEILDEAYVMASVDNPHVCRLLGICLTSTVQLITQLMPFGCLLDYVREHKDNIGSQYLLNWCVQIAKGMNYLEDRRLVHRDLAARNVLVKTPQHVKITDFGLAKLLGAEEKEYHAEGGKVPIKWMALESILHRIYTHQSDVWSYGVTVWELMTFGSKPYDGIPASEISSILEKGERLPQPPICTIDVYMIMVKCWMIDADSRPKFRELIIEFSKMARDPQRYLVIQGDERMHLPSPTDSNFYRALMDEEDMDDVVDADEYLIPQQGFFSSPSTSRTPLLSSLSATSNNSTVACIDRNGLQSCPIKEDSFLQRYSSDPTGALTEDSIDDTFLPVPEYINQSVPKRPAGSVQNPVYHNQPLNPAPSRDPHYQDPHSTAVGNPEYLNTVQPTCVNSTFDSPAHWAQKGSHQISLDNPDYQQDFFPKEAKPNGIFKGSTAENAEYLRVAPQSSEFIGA

Broadly, the IC50 is the midpoint of a concentration-inhibition curve. In the case of `CCOC(=O)C1=C(N)Oc2cc(O)c(/N=N/c3ccc(S(N)(=O)=O)cc3)cc2C1c1ccc(Cl)cc1` (centres unmarked) [7f], the IC50 against MMP-2 is ~64.8 µM and 64.8 µM; at cytosolic hCA II, 164 µM; in experiment [1] (setting [5]) it was 3.93 ± 0.09 µM; in experiment [2] (Homo sapiens), 3.57 ± 0.11 µM; in experiment [3] (HepG-2 cells), 1.74 ± 0.07 µM; in experiment [3] (setting [6]), 1.63 µM. 12.7 µM corresponded to half-maximal inhibition at EGFR (IC50). Besides, at MMP-2, the “anti-MMP-2 inhibition at the first concentration” value was “approximately 80.93%”. In addition, in experiment [2], the “IC50 (µM) HCT-116” value is recorded as “good potency”.
For the compound `CCOC(=O)C1=C(N)Oc2cc(O)c(/N=N/c3ccc(S(N)(=O)=O)cc3)cc2C1c1ccc(Cl)cc1Cl` (centres unmarked) [7g], the IC50 on cytosolic hCA II amounted to 314 µM; in experiment [1] (setting [5]), 1.72 ± 2.5 µM; in experiment [2] (Homo sapiens), 1.74 ± 4.06 µM; in experiment [3] (HepG-2 cells), 1.63 ± 2.36 µM; in experiment [3] (setting [6]), 1.74 µM. Moreover, the “IC50 (µM) HCT-116” value in experiment [2] is “good potency”.
In the case of `N.N.[Cl][Pt][Cl]` [Cisplatin, reference compound], the IC50 in experiment [1] (MCF-7 cells) stood at 14.66 ± 0.03 µM; in experiment [2] it was 8.36 ± 0.07 µM; in experiment [3] (HepG-2 cells) it was 10.9 ± 0.19 µM.
Take `CCOC(=O)C1=C(N/C(=C(/C#N)C(=O)OCC)c2ccc(C)cc2)Oc2cc(O)c(/N=N/c3ccc(S(=O)(=O)Nc4cc(C)no4)cc3)cc2C1c1ccc(C)cc1` (centres unmarked) [11e]: the IC50 stood at 23.6 ± 2.05 µM in experiment [1] (setting [5]), 18.4 ± 1.19 µM in experiment [2] (Homo sapiens), 17.3 ± 1.06 µM in experiment [3] (setting [6]) and 162 ± 6.48 µM in experiment [4].
`CCOC(=O)C1=C(N)Oc2cc(O)c(/N=N/c3ccc(S(N)(=O)=O)cc3)cc2C1c1ccc([N+](=O)[O-])cc1` (centres unmarked) [7d]: the IC50 in experiment [1] (setting [5]) was 97.9 ± 3.08 µM; in experiment [2] (Homo sapiens) it was 114 ± 5.34 µM; in experiment [3] (HepG-2 cells), 34.9 ± 2.79 µM; in experiment [3] (setting [6]) it was 45.9 µM.
`CCOC(=O)C1=C(N)Oc2cc(O)c(/N=N/c3ccc(S(N)(=O)=O)cc3)cc2C1c1ccccc1` (centres unmarked) [7a]: the IC50 at MMP-2 was ~113 µM and 113 µM; on cytosolic hCA II, 301 µM; in experiment [1] (setting [5]) it was 13.05 ± 0.12 µM; in experiment [2] (Homo sapiens), 6.82 ± 0.19 µM; in experiment [3] (setting [6]), 3.92 ± 0.09 µM; at EGFR it was 23.4 µM. The “anti-MMP-2 inhibition at the first concentration” value at MMP-2 is recorded as approximately 73.89%.
Take `CCOC(=O)C1=C(N/C(=C(/C#N)C(=O)OCC)c2ccc(C)cc2)Oc2cc(O)c(/N=N/c3ccc(S(N)(=O)=O)cc3)cc2C1c1ccc(C)cc1` (centres unmarked) [11a]: the IC50 in experiment [1] (setting [5]) is 20.8 ± 1.38 µM; in experiment [2] (Homo sapiens), 12.2 ± 0.96 µM; in experiment [3] (setting [6]), 32.2 ± 1.79 µM; in experiment [4] it was 139 ± 5.26 µM.
On the same counts, the results for `CCOC(=O)C1=C(N/C(=C(/C#N)C(=O)OCC)c2ccc(C)cc2)Oc2cc(O)c(/N=N/c3ccc(S(=O)(=O)NC(=N)N)cc3)cc2C1c1ccc(C)cc1` (centres unmarked) [11c] are 105 ± 5.78 µM, 79.5 ± 3.65 µM, 73.8 ± 2.89 µM and 328 ± 8.26 µM.
For `CCOC(=O)C1=C(N/C(=C(/C#N)C(=O)OCC)c2ccc(C)cc2)Oc2cc(O)c(/N=N/c3ccc(S(=O)(=O)NC(C)=O)cc3)cc2C1c1ccc(C)cc1` (centres unmarked) [11b], the results for the IC50 in experiment [1] (setting [5]), in experiment [2] (Homo sapiens) and in experiment [3] (setting [6]) were 66 ± 3.91 µM, 39.3 ± 2.63 µM and 147 ± 6.41 µM, respectively.
On to `CCOC(=O)C1=C(N)Oc2cc(O)c(/N=N/c3ccc(S(N)(=O)=O)cc3)cc2C1c1ccc(F)cc1` (centres unmarked) [7e], for which the 50% inhibitory concentration (IC50) in experiment [1] (setting [5]) is 6.15 ± 1.23 µM; in experiment [2] (Homo sapiens) it was 8 ± 3.45 µM; in experiment [3] (setting [6]), 2.92 ± 3.52 µM.
For `CCOC(=O)C1=C(N)Oc2cc(O)c(/N=N/c3ccc(S(N)(=O)=O)cc3)cc2C1c1ccc(OC)cc1` (centres unmarked) [7c], the IC50 in experiment [1] (setting [5]) amounted to 104 ± 2.65 µM; in experiment [2] (Homo sapiens), 70.8 ± 1.85 µM; in experiment [3] (HepG-2 cells), 51.8 ± 1.02 µM; in experiment [3] (setting [6]) it was 34.9 µM.
As for `CCOC(=O)C1=C(N/C(=C(/C#N)C(=O)OCC)c2ccc(C)cc2)Oc2cc(O)c(/N=N/c3ccc(S(=O)(=O)Nc4nccs4)cc3)cc2C1c1ccc(C)cc1` (centres unmarked) [11d], the IC50 on cytosolic hCA II worked out at 267 µM; in experiment [1] (setting [5]) it was 9.13 ± 0.93 µM; in experiment [2] (Homo sapiens) it was 6.32 ± 0.68 µM; in experiment [3] (setting [6]), 4.71 ± 0.47 µM; in experiment [4], 278 ± 6.45 µM.
Turning to `CNC(=O)c1cc(Oc2ccc(NC(=O)Nc3ccc(Cl)c(C(F)(F)F)c3)cc2)ccn1` [Sorafenib, reference compound], the IC50 against MMP-2 is ~12.3 µM and 12.3 µM.
In the case of `COc1cccc2c1C(=O)c1c(O)c3c(c(O)c1C2=O)C[C@@](O)(C(=O)CO)C[C@@H]3O[C@H]1C[C@H](N)[C@H](O)[C@H](C)O1` [Doxorubicin, reference compound], the half-inhibitory concentration (IC50) was found to be 0.64 ± 0.03 µM in experiment [1] (setting [5]), 0.9 ± 0.07 µM in experiment [2] (Homo sapiens) and 0.66 ± 0.02 µM in experiment [3] (setting [6]).
In the case of `CCOC(=O)C1=C(N)Oc2cc(O)c(/N=N/c3ccc(S(N)(=O)=O)cc3)cc2C1c1ccc(C)cc1` (centres unmarked) [7b], the IC50 came out at 711 µM on cytosolic hCA II; 29.5 ± 3.29 µM in experiment [1] (setting [5]); 17.3 ± 4.29 µM in experiment [2] (Homo sapiens); 45.7 ± 2.88 µM in experiment [3] (HepG-2 cells); 51.9 µM in experiment [3] (setting [6]).
